According to the NIST ThermoML archive (doi:10.1016/j.jct.2007.04.005):
± gives the expanded uncertainty stated by the source.

Assay: xn = mol fraction of the nth substance listed
Conditions: 308.15 K, Liquid

In the case of `CCCCCCCCC` [nonane] + C1CCCCC1, the mass density (100 kPa, x2 = 0) is reported as 705.8 ± 0.7 kg/m3, the mass density (100 kPa, x2 = 0.09303) is reported as 708.8 ± 0.7 kg/m3 and the mass density (100 kPa, x2 = 0.2009) is reported as 712.6 ± 0.7 kg/m3. For the same compound, the mass density (100 kPa, x2 = 0.3051) was 716.8 ± 0.7 kg/m3, the mass density (100 kPa, x2 = 0.417) was 721.7 ± 0.6 kg/m3 and the mass density (100 kPa, x2 = 0.512) was 726.3 ± 0.6 kg/m3. The mass density (100 kPa, x2 = 0.5996) was 731.2 ± 0.6 kg/m3, the mass density (100 kPa, x2 = 0.7052) was 737.9 ± 0.6 kg/m3 and the mass density (100 kPa, x2 = 0.7993) was 745 ± 0.6 kg/m3. For the same compound, the mass density (100 kPa, x2 = 0.9039) was 754 ± 0.5 kg/m3, the mass density (101 kPa, x2 = 0) was 706.11 ± 0.68 kg/m3 and the mass density (101 kPa, x2 = 0.1022) was 709.37 ± 0.66 kg/m3. For the same compound, the mass density (101 kPa, x2 = 0.1548) was 711.18 ± 0.66 kg/m3, the mass density (101 kPa, x2 = 0.2009) was 712.84 ± 0.65 kg/m3 and the mass density (101 kPa, x2 = 0.2591) was 715.05 ± 0.64 kg/m3. It also gave a mass density (101 kPa, x2 = 0.3306) of 717.98 ± 0.63 kg/m3, a mass density (101 kPa, x2 = 0.4003) of 721.05 ± 0.61 kg/m3 and a mass density (101 kPa, x2 = 0.4596) of 723.89 ± 0.6 kg/m3. It also gave a mass density (101 kPa, x2 = 0.5321) of 727.62 ± 0.59 kg/m3, a mass density (101 kPa, x2 = 0.612) of 732.19 ± 0.58 kg/m3 and a mass density (101 kPa, x2 = 0.6649) of 735.49 ± 0.57 kg/m3. It also gave a mass density (101 kPa, x2 = 0.7224) of 739.39 ± 0.56 kg/m3, a mass density (101 kPa, x2 = 0.8047) of 745.58 ± 0.54 kg/m3 and a mass density (101 kPa, x2 = 0.8686) of 751 ± 0.53 kg/m3. It also gave a mass density (101 kPa, x2 = 0.9405) of 757.89 ± 0.52 kg/m3, a mass density (2130 kPa, x2 = 0) of 707.5 ± 0.8 kg/m3 and a mass density (2130 kPa, x2 = 0.09303) of 710.5 ± 0.8 kg/m3. It also gave a mass density (2130 kPa, x2 = 0.2009) of 714.3 ± 0.8 kg/m3, a mass density (2130 kPa, x2 = 0.3051) of 718.5 ± 0.7 kg/m3 and a mass density (2130 kPa, x2 = 0.417) of 723.4 ± 0.7 kg/m3. For the same compound, the mass density (2130 kPa, x2 = 0.512) was 728 ± 0.7 kg/m3, the mass density (2130 kPa, x2 = 0.5996) was 733 ± 0.7 kg/m3 and the mass density (2130 kPa, x2 = 0.7052) was 739.7 ± 0.7 kg/m3. The mass density (2130 kPa, x2 = 0.7993) was 746.8 ± 0.6 kg/m3, the mass density (2130 kPa, x2 = 0.9039) was 755.7 ± 0.6 kg/m3 and the mass density (4150 kPa, x2 = 0) was 709.2 ± 0.9 kg/m3. For the same compound, the mass density (4150 kPa, x2 = 0.09303) was 712.2 ± 0.9 kg/m3, the mass density (4150 kPa, x2 = 0.2009) was 716 ± 0.8 kg/m3 and the mass density (4150 kPa, x2 = 0.3051) was 720.2 ± 0.8 kg/m3. The mass density (4150 kPa, x2 = 0.417) was 725.1 ± 0.8 kg/m3, the mass density (4150 kPa, x2 = 0.512) was 729.7 ± 0.8 kg/m3 and the mass density (4150 kPa, x2 = 0.5996) was 734.7 ± 0.8 kg/m3. The mass density (4150 kPa, x2 = 0.7052) was 741.5 ± 0.7 kg/m3, the mass density (4150 kPa, x2 = 0.7993) was 748.5 ± 0.7 kg/m3 and the mass density (4150 kPa, x2 = 0.9039) was 757.5 ± 0.7 kg/m3. For the same compound, the mass density (6180 kPa, x2 = 0) was 710.9 ± 1 kg/m3, the mass density (6180 kPa, x2 = 0.09303) was 713.9 ± 0.9 kg/m3 and the mass density (6180 kPa, x2 = 0.2009) was 717.7 ± 0.9 kg/m3. The mass density (6180 kPa, x2 = 0.3051) was 721.9 ± 0.9 kg/m3, the mass density (6180 kPa, x2 = 0.417) was 726.8 ± 0.9 kg/m3 and the mass density (6180 kPa, x2 = 0.512) was 731.4 ± 0.9 kg/m3. The mass density (6180 kPa, x2 = 0.5996) was 736.4 ± 0.8 kg/m3, the mass density (6180 kPa, x2 = 0.7052) was 743.2 ± 0.8 kg/m3 and the mass density (6180 kPa, x2 = 0.7993) was 750.3 ± 0.8 kg/m3. For the same compound, the mass density (6180 kPa, x2 = 0.9039) was 759.3 ± 0.8 kg/m3, the mass density (8210 kPa, x2 = 0) was 712.5 ± 1 kg/m3 and the mass density (8210 kPa, x2 = 0.09303) was 715.5 ± 1 kg/m3. It also gave a mass density (8210 kPa, x2 = 0.2009) of 719.4 ± 1 kg/m3, a mass density (8210 kPa, x2 = 0.3051) of 723.6 ± 1 kg/m3 and a mass density (8210 kPa, x2 = 0.417) of 728.5 ± 1 kg/m3. It also gave a mass density (8210 kPa, x2 = 0.512) of 733.1 ± 0.9 kg/m3, a mass density (8210 kPa, x2 = 0.5996) of 738.1 ± 0.9 kg/m3 and a mass density (8210 kPa, x2 = 0.7052) of 744.9 ± 0.9 kg/m3. The mass density (8210 kPa, x2 = 0.7993) was 752 ± 0.9 kg/m3, the mass density (8210 kPa, x2 = 0.9039) was 761 ± 0.8 kg/m3 and the mass density (10230 kPa, x2 = 0) was 714.1 ± 1.1 kg/m3. For the same compound, the mass density (10230 kPa, x2 = 0.09303) was 717.1 ± 1.1 kg/m3, the mass density (10230 kPa, x2 = 0.2009) was 721 ± 1.1 kg/m3 and the mass density (10230 kPa, x2 = 0.3051) was 725.2 ± 1.1 kg/m3. The mass density (10230 kPa, x2 = 0.417) was 730.1 ± 1 kg/m3, the mass density (10230 kPa, x2 = 0.512) was 734.7 ± 1 kg/m3 and the mass density (10230 kPa, x2 = 0.5996) was 739.8 ± 1 kg/m3. It also gave a mass density (10230 kPa, x2 = 0.7052) of 746.6 ± 1 kg/m3, a mass density (10230 kPa, x2 = 0.7993) of 753.6 ± 0.9 kg/m3 and a mass density (10230 kPa, x2 = 0.9039) of 762.7 ± 0.9 kg/m3. It also gave a mass density (11250 kPa, x2 = 0) of 714.9 ± 1.2 kg/m3, a mass density (11250 kPa, x2 = 0.09303) of 717.9 ± 1.2 kg/m3 and a mass density (11250 kPa, x2 = 0.2009) of 721.8 ± 1.1 kg/m3. The mass density (11250 kPa, x2 = 0.3051) was 726 ± 1.1 kg/m3, the mass density (11250 kPa, x2 = 0.417) was 730.9 ± 1.1 kg/m3 and the mass density (11250 kPa, x2 = 0.512) was 735.5 ± 1.1 kg/m3. It also gave a mass density (11250 kPa, x2 = 0.5996) of 740.6 ± 1 kg/m3, a mass density (11250 kPa, x2 = 0.7052) of 747.4 ± 1 kg/m3 and a mass density (11250 kPa, x2 = 0.7993) of 754.4 ± 1 kg/m3. For the same compound, the mass density (11250 kPa, x2 = 0.9039) was 763.5 ± 0.9 kg/m3, the mass density (12260 kPa, x2 = 0) was 715.7 ± 1.2 kg/m3 and the mass density (12260 kPa, x2 = 0.09303) was 718.7 ± 1.2 kg/m3. The mass density (12260 kPa, x2 = 0.2009) was 722.6 ± 1.2 kg/m3, the mass density (12260 kPa, x2 = 0.3051) was 726.8 ± 1.1 kg/m3 and the mass density (12260 kPa, x2 = 0.417) was 731.7 ± 1.1 kg/m3. For the same compound, the mass density (12260 kPa, x2 = 0.512) was 736.3 ± 1.1 kg/m3, the mass density (12260 kPa, x2 = 0.5996) was 741.4 ± 1.1 kg/m3 and the mass density (12260 kPa, x2 = 0.7052) was 748.2 ± 1 kg/m3. The mass density (12260 kPa, x2 = 0.7993) was 755.3 ± 1 kg/m3, the mass density (12260 kPa, x2 = 0.9039) was 764.4 ± 1 kg/m3 and the mass density (14290 kPa, x2 = 0) was 717.2 ± 1.3 kg/m3. For the same compound, the mass density (14290 kPa, x2 = 0.09303) was 720.3 ± 1.3 kg/m3, the mass density (14290 kPa, x2 = 0.2009) was 724.2 ± 1.2 kg/m3 and the mass density (14290 kPa, x2 = 0.3051) was 728.3 ± 1.2 kg/m3. It also gave a mass density (14290 kPa, x2 = 0.417) of 733.3 ± 1.2 kg/m3, a mass density (14290 kPa, x2 = 0.512) of 737.9 ± 1.2 kg/m3 and a mass density (14290 kPa, x2 = 0.5996) of 743 ± 1.1 kg/m3. For the same compound, the mass density (14290 kPa, x2 = 0.7052) was 749.8 ± 1.1 kg/m3, the mass density (14290 kPa, x2 = 0.7993) was 756.9 ± 1.1 kg/m3 and the mass density (14290 kPa, x2 = 0.9039) was 766 ± 1 kg/m3. For the same compound, the mass density (16310 kPa, x2 = 0) was 718.7 ± 1.4 kg/m3, the mass density (16310 kPa, x2 = 0.09303) was 721.8 ± 1.4 kg/m3 and the mass density (16310 kPa, x2 = 0.2009) was 725.7 ± 1.3 kg/m3. For the same compound, the mass density (16310 kPa, x2 = 0.3051) was 729.9 ± 1.3 kg/m3, the mass density (16310 kPa, x2 = 0.417) was 734.8 ± 1.3 kg/m3 and the mass density (16310 kPa, x2 = 0.512) was 739.4 ± 1.2 kg/m3. For the same compound, the mass density (16310 kPa, x2 = 0.5996) was 744.5 ± 1.2 kg/m3, the mass density (16310 kPa, x2 = 0.7052) was 751.4 ± 1.2 kg/m3 and the mass density (16310 kPa, x2 = 0.7993) was 758.4 ± 1.1 kg/m3. For the same compound, the mass density (16310 kPa, x2 = 0.9039) was 767.5 ± 1.1 kg/m3, the mass density (18340 kPa, x2 = 0) was 720.2 ± 1.5 kg/m3 and the mass density (18340 kPa, x2 = 0.09303) was 723.2 ± 1.4 kg/m3. For the same compound, the mass density (18340 kPa, x2 = 0.2009) was 727.2 ± 1.4 kg/m3, the mass density (18340 kPa, x2 = 0.3051) was 731.4 ± 1.4 kg/m3 and the mass density (18340 kPa, x2 = 0.417) was 736.3 ± 1.3 kg/m3. It also gave a mass density (18340 kPa, x2 = 0.512) of 740.9 ± 1.3 kg/m3 and a mass density (18340 kPa, x2 = 0.5996) of 746.1 ± 1.3 kg/m3.
